Assays:
[1] = target: T1, HDAC1 (Homo sapiens, UniProt Q13547); assay: In vitro HDAC enzyme inhibition assay, HDAC1; type: biochemical; conditions: for HDAC1/HDAC6 in vitro selectivity: ratio of IC50 for HDAC1 relative to that of HDAC6; for IC50: recombinant full-length HDAC1, substrate MAZ1600 21 μM
T1 construct: Recombinant, full-length HDAC protein (BPS Biosciences) was incubated with fluorophore conjugated substrate; purchased BPS Biosciences
Procedure, shortened: (§1)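 Full-length recombinant enzyme + MAZ1600/MAZ1675 substrate at [S]=Km, HEPES/KCl/Tween-20/BSA/TCEP buffer pH 7.4; AMC fluorescence via deacetylase + trypsin, kinetic read q5 min; slope in linear range normalized to controls.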

[2] = target: T2, HDAC2 (Homo sapiens, UniProt Q92769); assay: In vitro HDAC enzyme inhibition assay, HDAC2; type: biochemical; conditions: for HDAC2/HDAC6 in vitro selectivity: ratio of IC50 for HDAC2 relative to that of HDAC6; for IC50: recombinant full-length HDAC2, substrate MAZ1600 22 μM
T2 construct: Recombinant, full-length HDAC protein (BPS Biosciences) was incubated with fluorophore conjugated substrate; purchased BPS Biosciences
Procedure, shortened: as §1

[3] = target: T3, HDAC3 (Homo sapiens, UniProt O15379); assay: In vitro HDAC enzyme inhibition assay, HDAC3; type: biochemical; conditions: for HDAC3/HDAC6 in vitro selectivity: ratio of IC50 for HDAC3 relative to that of HDAC6; for IC50: recombinant full-length HDAC3, substrate MAZ1600 9 μM
T3 construct: Recombinant, full-length HDAC protein (BPS Biosciences) was incubated with fluorophore conjugated substrate; purchased BPS Biosciences
Procedure, shortened: as §1

[4] = target: T4, HDAC4 (Homo sapiens, UniProt P56524); assay: In vitro HDAC enzyme inhibition assay, HDAC4; type: biochemical; conditions: for HDAC4/HDAC6 in vitro selectivity: ratio of IC50 for HDAC4 relative to that of HDAC6; for IC50: recombinant full-length HDAC4, substrate MAZ1675 10 μM; for selectivity toward HDAC6 compared to HDAC4 (in words): tested in vitro
T4 construct: Recombinant, full-length HDAC protein (BPS Biosciences) was incubated with fluorophore conjugated substrate; purchased BPS Biosciences
Procedure, shortened: as §1

[5] = target: T5, HDAC5 (Homo sapiens, UniProt Q9UQL6); assay: In vitro HDAC enzyme inhibition assay, HDAC5; type: biochemical; conditions: for HDAC5/HDAC6 in vitro selectivity: ratio of IC50 for HDAC5 relative to that of HDAC6; for IC50: recombinant full-length HDAC5, substrate MAZ1675 40 μM; for selectivity toward HDAC6 compared to HDAC5 (in words): tested in vitro
T5 construct: Recombinant, full-length HDAC protein (BPS Biosciences) was incubated with fluorophore conjugated substrate; purchased BPS Biosciences
Procedure, shortened: as §1

[6] = target: T6, HDAC7 (Homo sapiens, UniProt Q8WUI4); assay: In vitro HDAC enzyme inhibition assay, HDAC7; type: biochemical; conditions: for HDAC7/HDAC6 in vitro selectivity: ratio of IC50 for HDAC7 relative to that of HDAC6; for IC50: recombinant full-length HDAC7, substrate MAZ1675 22 μM
T6 construct: Recombinant, full-length HDAC protein (BPS Biosciences) was incubated with fluorophore conjugated substrate; purchased BPS Biosciences
T6 sequence (Q8WUI4 1-952): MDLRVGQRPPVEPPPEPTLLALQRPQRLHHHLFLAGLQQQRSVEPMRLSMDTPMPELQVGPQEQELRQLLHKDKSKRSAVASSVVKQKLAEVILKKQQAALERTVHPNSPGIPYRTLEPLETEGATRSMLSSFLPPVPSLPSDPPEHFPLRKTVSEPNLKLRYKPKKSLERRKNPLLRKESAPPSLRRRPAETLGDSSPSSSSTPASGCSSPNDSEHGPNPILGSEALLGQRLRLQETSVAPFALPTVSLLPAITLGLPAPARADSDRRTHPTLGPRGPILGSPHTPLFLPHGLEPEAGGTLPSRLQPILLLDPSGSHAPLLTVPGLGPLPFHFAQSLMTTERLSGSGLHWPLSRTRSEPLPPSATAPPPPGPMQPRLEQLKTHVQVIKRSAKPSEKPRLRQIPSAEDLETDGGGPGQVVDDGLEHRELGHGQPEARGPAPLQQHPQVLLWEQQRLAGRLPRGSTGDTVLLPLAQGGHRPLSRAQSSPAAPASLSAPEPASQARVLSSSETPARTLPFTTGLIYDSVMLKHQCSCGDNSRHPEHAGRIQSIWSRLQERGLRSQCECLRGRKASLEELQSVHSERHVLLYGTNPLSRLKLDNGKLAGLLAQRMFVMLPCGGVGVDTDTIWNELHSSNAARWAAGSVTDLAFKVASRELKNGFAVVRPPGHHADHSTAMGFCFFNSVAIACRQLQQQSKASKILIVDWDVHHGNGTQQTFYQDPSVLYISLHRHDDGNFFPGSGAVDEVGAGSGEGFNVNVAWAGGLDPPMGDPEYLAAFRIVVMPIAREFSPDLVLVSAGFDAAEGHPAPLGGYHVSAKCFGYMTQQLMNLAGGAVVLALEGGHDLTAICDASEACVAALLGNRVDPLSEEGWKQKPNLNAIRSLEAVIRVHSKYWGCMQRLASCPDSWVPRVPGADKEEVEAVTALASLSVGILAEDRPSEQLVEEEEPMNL
Procedure, shortened: as §1

[7] = target: T7, HDAC8 (Homo sapiens, UniProt Q9BY41); assay: In vitro HDAC enzyme inhibition assay, HDAC8; type: biochemical; conditions: for HDAC8/HDAC6 in vitro selectivity: ratio of IC50 for HDAC8 relative to that of HDAC6; for IC50: recombinant full-length HDAC8, substrate MAZ1675 282 μM
T7 construct: Recombinant, full-length HDAC protein (BPS Biosciences) was incubated with fluorophore conjugated substrate; purchased BPS Biosciences
T7 sequence (Q9BY41 1-377): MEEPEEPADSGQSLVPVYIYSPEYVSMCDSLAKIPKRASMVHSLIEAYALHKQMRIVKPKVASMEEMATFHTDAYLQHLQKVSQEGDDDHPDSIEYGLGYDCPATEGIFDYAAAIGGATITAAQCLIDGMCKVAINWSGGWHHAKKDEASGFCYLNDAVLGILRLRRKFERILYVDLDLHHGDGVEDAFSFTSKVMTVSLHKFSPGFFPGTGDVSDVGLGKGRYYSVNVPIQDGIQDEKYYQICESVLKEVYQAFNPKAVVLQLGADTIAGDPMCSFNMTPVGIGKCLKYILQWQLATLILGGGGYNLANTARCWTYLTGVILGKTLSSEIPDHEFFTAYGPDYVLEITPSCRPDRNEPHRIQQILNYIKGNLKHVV
Procedure, shortened: as §1

[8] = target: T8, HDAC9 (Homo sapiens, UniProt Q9UKV0); assay: In vitro HDAC enzyme inhibition assay, HDAC9; type: biochemical; conditions: for HDAC9/HDAC6 in vitro selectivity: ratio of IC50 for HDAC9 relative to that of HDAC6; for IC50: recombinant full-length HDAC9, substrate MAZ1675 26 μM; for selectivity toward HDAC6 compared to HDAC9 (in words): tested in vitro
T8 construct: Recombinant, full-length HDAC protein (BPS Biosciences) was incubated with fluorophore conjugated substrate; purchased BPS Biosciences
Procedure, shortened: as §1

[9] = test system: acetylated tubulin; assay: High-content image analysis of induction of acetylated tubulin in A549 cells; conditions: for EC50: Homo sapiens, A549, 8 h, read-out: EC50 for half-maximal induction of acetylated tubulin (AcTubulin); for AcHistone/AcTubulin in cell selectivity toward HDAC6: ratio of EC50 acetylated histone to EC50 acetylated tubulin, A549 cells
[10] = test system: acetylated histones; assay: High-content image analysis of induction of acetylated histones in A549 cells; conditions: Homo sapiens, A549, 8 h, read-out: EC50 for half-maximal induction of acetylated histones (AcHistone)
Protocol: Cells were treated with each test HDACi compound with an automated pin transfer instrument (Janus, Perkin Elmer) and incubated for 8 hours. […] Fixation solution was aspirated and 90 μL of washing solution (0.1% Triton X-100 in PBS) was added prior to 10 minute incubation at 4° C. Washing solution was aspirated and cells were incubated at 4° C. for about 1 hour in blocking solution (0.1% Triton X-100+2% BSA in PBS). Washing solution was aspirated, and cells were incubated for about 1 hour at 4° C. in primary antibody for acetylated-tubulin (Sigma T7451) and acetylated-histone (Cell Signaling #9441L) at a 1:1000 dilution in blocking solution. Primary antibody solution was aspirated, and cells were washed three times in 90 μL of washing solution. […] Secondary antibody and nuclear staining solution was aspirated and cells were washed three times in 90 μL of washing solution. After the third wash, 50 μL of PBS was added to each well. Image acquisition was done on a high content imaging microscope (ImageXpress Micro, Molecular Devices), and image analysis (MetaXpress, Molecular Devices) was performed to obtain average acetylated-tubulin and acetylated-histone signal per cell based on treatment. Replicate experimental data from incubations with inhibitor were normalized to DMSO controls.

T2 sequence (Q92769 whole entry): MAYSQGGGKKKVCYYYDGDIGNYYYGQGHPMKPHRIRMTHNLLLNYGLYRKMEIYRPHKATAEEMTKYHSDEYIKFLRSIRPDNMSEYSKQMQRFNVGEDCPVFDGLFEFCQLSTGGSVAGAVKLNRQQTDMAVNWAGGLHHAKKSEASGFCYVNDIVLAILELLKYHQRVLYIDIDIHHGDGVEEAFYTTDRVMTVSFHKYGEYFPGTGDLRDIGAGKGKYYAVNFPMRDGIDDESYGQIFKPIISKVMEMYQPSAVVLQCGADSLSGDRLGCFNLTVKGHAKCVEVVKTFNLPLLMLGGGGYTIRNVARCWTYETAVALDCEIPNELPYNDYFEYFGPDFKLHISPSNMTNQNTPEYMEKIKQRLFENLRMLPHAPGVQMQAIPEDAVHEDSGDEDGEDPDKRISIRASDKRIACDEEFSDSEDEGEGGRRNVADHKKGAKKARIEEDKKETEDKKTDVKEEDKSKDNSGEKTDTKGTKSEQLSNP
T1 sequence (Q13547 whole entry): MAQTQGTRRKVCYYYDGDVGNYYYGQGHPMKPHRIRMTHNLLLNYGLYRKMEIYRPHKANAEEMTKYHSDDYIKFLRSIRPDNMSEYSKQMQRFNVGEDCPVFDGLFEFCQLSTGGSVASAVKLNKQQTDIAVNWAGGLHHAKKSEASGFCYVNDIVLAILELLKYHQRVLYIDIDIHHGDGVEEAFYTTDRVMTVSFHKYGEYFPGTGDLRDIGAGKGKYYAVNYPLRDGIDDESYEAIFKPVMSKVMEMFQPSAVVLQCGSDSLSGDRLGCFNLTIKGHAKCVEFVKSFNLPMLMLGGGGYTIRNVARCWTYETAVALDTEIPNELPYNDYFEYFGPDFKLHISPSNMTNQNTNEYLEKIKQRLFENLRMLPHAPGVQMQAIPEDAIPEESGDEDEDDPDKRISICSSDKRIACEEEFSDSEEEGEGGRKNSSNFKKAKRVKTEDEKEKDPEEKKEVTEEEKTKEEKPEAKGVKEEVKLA
T4 sequence (P56524 whole entry): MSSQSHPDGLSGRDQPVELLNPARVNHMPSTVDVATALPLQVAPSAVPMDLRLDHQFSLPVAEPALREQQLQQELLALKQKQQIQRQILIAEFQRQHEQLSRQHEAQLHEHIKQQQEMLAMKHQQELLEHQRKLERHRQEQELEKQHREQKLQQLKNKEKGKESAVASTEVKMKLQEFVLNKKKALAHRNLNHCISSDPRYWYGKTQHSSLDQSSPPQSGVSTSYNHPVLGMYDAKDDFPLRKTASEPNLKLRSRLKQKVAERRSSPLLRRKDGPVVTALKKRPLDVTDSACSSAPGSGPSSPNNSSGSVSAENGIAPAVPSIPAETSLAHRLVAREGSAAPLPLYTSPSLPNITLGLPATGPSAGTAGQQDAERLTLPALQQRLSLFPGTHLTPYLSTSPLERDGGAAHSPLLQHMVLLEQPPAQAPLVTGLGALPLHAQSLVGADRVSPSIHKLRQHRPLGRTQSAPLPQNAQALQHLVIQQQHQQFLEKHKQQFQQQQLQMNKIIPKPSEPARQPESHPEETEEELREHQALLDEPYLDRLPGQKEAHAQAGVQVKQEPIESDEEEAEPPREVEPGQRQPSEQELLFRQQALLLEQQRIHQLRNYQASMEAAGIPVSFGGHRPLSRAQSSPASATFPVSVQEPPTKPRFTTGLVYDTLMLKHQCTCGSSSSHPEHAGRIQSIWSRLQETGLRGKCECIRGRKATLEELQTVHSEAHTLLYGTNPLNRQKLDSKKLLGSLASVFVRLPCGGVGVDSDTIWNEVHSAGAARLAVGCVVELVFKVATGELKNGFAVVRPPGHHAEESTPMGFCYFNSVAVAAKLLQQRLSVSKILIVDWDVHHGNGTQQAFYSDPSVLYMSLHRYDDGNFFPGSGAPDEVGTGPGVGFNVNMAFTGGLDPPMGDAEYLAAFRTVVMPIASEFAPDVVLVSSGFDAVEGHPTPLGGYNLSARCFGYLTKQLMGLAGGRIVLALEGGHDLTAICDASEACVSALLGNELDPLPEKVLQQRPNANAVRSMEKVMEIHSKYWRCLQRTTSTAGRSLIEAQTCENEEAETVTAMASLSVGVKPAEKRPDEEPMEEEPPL
T3 sequence (O15379 whole entry): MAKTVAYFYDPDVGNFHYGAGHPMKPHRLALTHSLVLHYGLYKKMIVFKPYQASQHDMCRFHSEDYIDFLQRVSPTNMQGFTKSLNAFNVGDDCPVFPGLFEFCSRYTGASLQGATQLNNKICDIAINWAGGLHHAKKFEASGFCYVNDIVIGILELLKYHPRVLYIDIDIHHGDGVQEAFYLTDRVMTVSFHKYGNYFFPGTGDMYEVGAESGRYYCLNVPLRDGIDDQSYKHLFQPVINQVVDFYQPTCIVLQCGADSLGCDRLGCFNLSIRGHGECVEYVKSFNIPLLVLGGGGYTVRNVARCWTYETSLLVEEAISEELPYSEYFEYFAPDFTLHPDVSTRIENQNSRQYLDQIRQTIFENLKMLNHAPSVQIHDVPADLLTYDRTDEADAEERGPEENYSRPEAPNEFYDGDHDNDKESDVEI
T3 sequence (Q9Y618 395-489 partner limits assumed): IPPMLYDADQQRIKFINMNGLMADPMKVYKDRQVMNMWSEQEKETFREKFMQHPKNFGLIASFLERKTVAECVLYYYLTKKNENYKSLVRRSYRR
T8 sequence (Q9UKV0 whole entry): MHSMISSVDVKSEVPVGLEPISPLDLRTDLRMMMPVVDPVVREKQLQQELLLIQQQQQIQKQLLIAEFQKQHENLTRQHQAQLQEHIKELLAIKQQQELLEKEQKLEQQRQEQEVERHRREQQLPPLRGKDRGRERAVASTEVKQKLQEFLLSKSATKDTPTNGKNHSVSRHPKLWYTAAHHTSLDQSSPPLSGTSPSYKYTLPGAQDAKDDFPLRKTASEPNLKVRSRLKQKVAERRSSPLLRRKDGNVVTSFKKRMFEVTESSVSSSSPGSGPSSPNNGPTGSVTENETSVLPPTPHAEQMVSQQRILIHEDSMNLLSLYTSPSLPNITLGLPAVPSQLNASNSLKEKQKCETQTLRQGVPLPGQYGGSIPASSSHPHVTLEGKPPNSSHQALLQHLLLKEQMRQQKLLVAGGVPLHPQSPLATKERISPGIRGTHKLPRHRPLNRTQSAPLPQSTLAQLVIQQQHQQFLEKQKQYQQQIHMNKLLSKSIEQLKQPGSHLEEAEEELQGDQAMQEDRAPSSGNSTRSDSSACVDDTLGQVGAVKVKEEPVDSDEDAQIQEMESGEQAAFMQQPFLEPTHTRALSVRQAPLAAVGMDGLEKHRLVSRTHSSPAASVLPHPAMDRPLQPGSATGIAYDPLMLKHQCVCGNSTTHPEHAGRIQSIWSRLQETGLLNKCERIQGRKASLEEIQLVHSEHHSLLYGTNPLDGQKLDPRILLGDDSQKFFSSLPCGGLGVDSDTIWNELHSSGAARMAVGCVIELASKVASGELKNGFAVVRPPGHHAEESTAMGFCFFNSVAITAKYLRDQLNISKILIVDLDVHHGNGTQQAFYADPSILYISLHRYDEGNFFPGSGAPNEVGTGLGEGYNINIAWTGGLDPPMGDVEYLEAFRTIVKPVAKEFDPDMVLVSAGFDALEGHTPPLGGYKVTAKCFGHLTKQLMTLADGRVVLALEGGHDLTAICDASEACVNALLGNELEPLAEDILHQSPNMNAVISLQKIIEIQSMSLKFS
T5 sequence (Q9UQL6 whole entry): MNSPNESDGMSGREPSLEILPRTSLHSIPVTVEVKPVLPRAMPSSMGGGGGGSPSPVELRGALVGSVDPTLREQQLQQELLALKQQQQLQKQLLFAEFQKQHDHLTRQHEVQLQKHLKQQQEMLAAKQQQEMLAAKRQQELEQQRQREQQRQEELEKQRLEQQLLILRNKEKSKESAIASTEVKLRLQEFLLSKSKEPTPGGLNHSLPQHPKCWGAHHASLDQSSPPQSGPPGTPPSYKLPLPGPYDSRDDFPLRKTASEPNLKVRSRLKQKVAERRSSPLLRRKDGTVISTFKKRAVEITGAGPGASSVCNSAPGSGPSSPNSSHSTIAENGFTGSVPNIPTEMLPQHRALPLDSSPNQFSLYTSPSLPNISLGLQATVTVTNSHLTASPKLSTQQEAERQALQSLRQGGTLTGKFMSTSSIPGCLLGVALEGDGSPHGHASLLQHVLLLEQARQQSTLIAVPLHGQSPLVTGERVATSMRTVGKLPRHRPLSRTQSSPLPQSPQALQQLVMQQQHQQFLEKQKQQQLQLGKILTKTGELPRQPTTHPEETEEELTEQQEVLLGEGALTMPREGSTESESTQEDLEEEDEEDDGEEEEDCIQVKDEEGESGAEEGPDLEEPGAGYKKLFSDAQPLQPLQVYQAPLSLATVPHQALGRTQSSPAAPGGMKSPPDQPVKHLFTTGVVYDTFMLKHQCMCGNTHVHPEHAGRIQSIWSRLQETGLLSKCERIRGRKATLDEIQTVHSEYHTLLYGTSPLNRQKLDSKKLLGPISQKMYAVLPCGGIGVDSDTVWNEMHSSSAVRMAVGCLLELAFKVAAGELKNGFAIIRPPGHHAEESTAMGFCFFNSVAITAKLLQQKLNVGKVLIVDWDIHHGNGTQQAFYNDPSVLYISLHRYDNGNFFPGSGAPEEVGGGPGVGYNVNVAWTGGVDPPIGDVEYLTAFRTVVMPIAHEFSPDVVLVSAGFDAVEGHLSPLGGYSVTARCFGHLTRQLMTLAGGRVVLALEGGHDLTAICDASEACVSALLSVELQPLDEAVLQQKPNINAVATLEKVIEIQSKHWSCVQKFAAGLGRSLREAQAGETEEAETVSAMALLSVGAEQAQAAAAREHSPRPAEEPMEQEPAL

| SMILES | HDAC1/HDAC6 in vitro selectivity [1] | IC50 [1] [nM] | HDAC2/HDAC6 in vitro selectivity [2] | IC50 [2] [nM] | HDAC3/HDAC6 in vitro selectivity [3] | IC50 [3] [nM] | HDAC4/HDAC6 in vitro selectivity [4] | IC50 [4] [nM] | selectivity toward HDAC6 compared to HDAC4 (in words) [4] | HDAC5/HDAC6 in vitro selectivity [5] | IC50 [5] [nM] | HDAC7/HDAC6 in vitro selectivity [6] | IC50 [6] [nM] | HDAC8/HDAC6 in vitro selectivity [7] | IC50 [7] [nM] | HDAC9/HDAC6 in vitro selectivity [8] | IC50 [8] [nM] | EC50 [9] [nM] | AcHistone/AcTubulin in cell selectivity toward HDAC6 [9] | EC50 [10] [nM] | other results |
| --- | --- | --- | --- | --- | --- | --- | --- | --- | --- | --- | --- | --- | --- | --- | --- | --- | --- | --- | --- | --- | --- |
| Cc1ccc2c(c1)[nH]c(=O)n2Cc1ccc(C(=O)NO)cc1 [B2, N-hydroxy-4-((5-methyl-2-oxo-2,3-dihydro-1H-benzo[d]imidazol-1-yl)methyl)benzamide] | 4622 | 13.2 | 4997 | 14.3 | 6310 | 18.1 | 412836 | 1180 | exceptionally high selectivity (Inhibitors with in vitro selectivity values for HDAC6 of at least 30,000 are considered to have exceptionally high selectivity toward HDAC6) | 229909 | 658 | 55678 | 159 | 120780 | 346 | 319552 | 915 | 95.3 | 2.402 | 229 | selectivity toward HDAC6 compared to HDAC5 (in words) [5]: exceptionally high selectivity (Inhibitors with in vitro selectivity values for HDAC6 of at least 30,000 are considered to have exceptionally high selectivity toward HDAC6); selectivity toward HDAC6 compared to HDAC7 (in words) ([6]; tested in vitro): exceptionally high selectivity (Inhibitors with in vitro selectivity values for HDAC6 of at least 30,000 are considered to have exceptionally high selectivity toward HDAC6); selectivity toward HDAC6 compared to HDAC8 (in words) ([7]; tested in vitro): exceptionally high selectivity (Inhibitors with in vitro selectivity values for HDAC6 of at least 30,000 are considered to have exceptionally high selectivity toward HDAC6); selectivity toward HDAC6 compared to HDAC9 (in words) [8]: exceptionally high selectivity (Inhibitors with in vitro selectivity values for HDAC6 of at least 30,000 are considered to have exceptionally high selectivity toward HDAC6) |
| O=C(NO)c1ccc(Cn2c(=O)[nH]c3cc(F)ccc32)cc1 [B3, 4-((5-fluoro-2-oxo-2,3-dihydro-1H-benzo[d]imidazol-1-yl)methyl)N-hydroxybenzamide] | 2749 | 59.3 | 3002 | 64.7 | 6307 | 136 | 79927 | 1720 | exceptionally high selectivity (Inhibitors with in vitro selectivity values for HDAC6 of at least 30,000 are considered to have exceptionally high selectivity toward HDAC6) | 51438 | 1110 | 17021 | 367 | 12899 | 278 | 66950 | 1440 | 70.2 | 21.1 | 1480 | selectivity toward HDAC6 compared to HDAC5 (in words) [5]: exceptionally high selectivity (Inhibitors with in vitro selectivity values for HDAC6 of at least 30,000 are considered to have exceptionally high selectivity toward HDAC6); selectivity toward HDAC6 compared to HDAC9 (in words) [8]: exceptionally high selectivity (Inhibitors with in vitro selectivity values for HDAC6 of at least 30,000 are considered to have exceptionally high selectivity toward HDAC6) |
| O=C(NO)c1ccc(Cn2c(=O)[nH]c3cc(Cl)ccc32)cc1 [B4, 4-((5-chloro-2-oxo-2,3-dihydro-1H-benzo[d]imidazol-1-yl)methyl)-N-hydroxybenzamide] | 209 | 5.29 | 210 | 5.3 | 353 | 8.92 | 25301 | 639 | – | 22793 | 576 | 3153 | 79.6 | 6673 | 169 | 16475 | 416 | 80.5 | 5.217 | 420 | – |

Reference: patent publication US20150197497A1, “SELECTIVE INHIBITORS OF HISTONE DEACETYLASE ISOFORM 6 AND METHODS THEREOF” (DANA-FARBER CANCER INSTITUTE, INC., priority 2011, published 2015)
